Assay results as given in PubChem BioAssay (NCI).
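Cultured in 96-well plates, cells were exposed to test compound for 48 hours across five concentrations. GI50 is the concentration that inhibits growth by half. The concentration for full growth arrest is given as TGI.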

Key:
Test in all cases: NCI anticancer screen, dose series, 48 h
HT29 colon = system: HT29 colon
SK-MEL-28 melanoma = system: SK-MEL-28 melanoma
SK-OV-3 ovarian = system: SK-OV-3 ovarian
A498 renal = system: A498 renal
U251 CNS = system: U251 CNS
SNB-19 CNS = system: SNB-19 CNS
UACC-62 melanoma = system: UACC-62 melanoma
HCT-15 colon = system: HCT-15 colon
NCI/ADR-RES ovarian = system: NCI/ADR-RES ovarian
MCF7 breast = system: MCF7 breast
SK-MEL-5 melanoma = system: SK-MEL-5 melanoma
SK-MEL-2 melanoma = system: SK-MEL-2 melanoma
SR leukemia = system: SR leukemia
RPMI-8226 leukemia = system: RPMI-8226 leukemia
SF-268 CNS = system: SF-268 CNS
DU-145 prostate = system: DU-145 prostate
HCT-116 colon = system: HCT-116 colon
SN12C renal = system: SN12C renal
RXF 393 renal = system: RXF 393 renal
SNB-75 CNS = system: SNB-75 CNS
IGROV1 ovarian = system: IGROV1 ovarian
NCI-H23 lung = system: NCI-H23 lung
HL-60(TB) leukemia = system: HL-60(TB) leukemia
SF-539 CNS = system: SF-539 CNS
T-47D breast = system: T-47D breast
NCI-H522 lung = system: NCI-H522 lung
NCI-H226 lung = system: NCI-H226 lung
NCI-H460 lung = system: NCI-H460 lung
786-0 renal = system: 786-0 renal
CAKI-1 renal = system: CAKI-1 renal
OVCAR-4 ovarian = system: OVCAR-4 ovarian
HS 578T breast = system: HS 578T breast
MALME-3M melanoma = system: MALME-3M melanoma
OVCAR-8 ovarian = system: OVCAR-8 ovarian
OVCAR-3 ovarian = system: OVCAR-3 ovarian
HOP-92 NSCLC = system: HOP-92 NSCLC
K-562 leukemia = system: K-562 leukemia
A549 NSCLC = system: A549 NSCLC
MDA-MB-231 breast = system: MDA-MB-231 breast
CCRF-CEM leukemia = system: CCRF-CEM leukemia
ACHN renal = system: ACHN renal
HOP-62 NSCLC = system: HOP-62 NSCLC
OVCAR-5 ovarian = system: OVCAR-5 ovarian
M14 melanoma = system: M14 melanoma
MDA-MB-435 = system: MDA-MB-435
PC-3 prostate = system: PC-3 prostate
MOLT-4 leukemia = system: MOLT-4 leukemia
COLO 205 colon = system: COLO 205 colon
SW-620 colon = system: SW-620 colon
LOX IMVI melanoma = system: LOX IMVI melanoma
HCC-2998 colon = system: HCC-2998 colon
TK-10 renal = system: TK-10 renal
UACC-257 melanoma = system: UACC-257 melanoma
UO-31 renal = system: UO-31 renal
KM12 colon = system: KM12 colon
BT-549 breast = system: BT-549 breast

In the case of `N#CCCN1C/C(=C/c2ccccc2)C(=O)/C(=C/c2ccccc2)C1`, the GI50 (HT29 colon) is reported as 1.81 µM, the TGI (HT29 colon) is reported as 3.91 µM and the GI50 (SK-MEL-28 melanoma) is reported as 1.79 µM. For the same compound, the TGI (SK-MEL-28 melanoma) was 3.54 µM, the GI50 (SK-OV-3 ovarian) was 4.09 µM and the TGI (SK-OV-3 ovarian) was 14.2 µM. It also gave a GI50 (A498 renal) of 13.4 µM, a TGI (A498 renal) of 26.8 µM and a GI50 (U251 CNS) of 1.48 µM. It also gave a TGI (U251 CNS) of 3.12 µM, a GI50 (SNB-19 CNS) of 3.19 µM and a TGI (SNB-19 CNS) of 13.6 µM. For the same compound, the GI50 (UACC-62 melanoma) was 1.73 µM, the TGI (UACC-62 melanoma) was 3.44 µM and the GI50 (HCT-15 colon) was 1.45 µM. For the same compound, the TGI (HCT-15 colon) was 3.54 µM, the GI50 (NCI/ADR-RES ovarian) was 3.44 µM and the TGI (NCI/ADR-RES ovarian) was 31.7 µM. It also gave a GI50 (MCF7 breast) of 0.395 µM, a TGI (MCF7 breast) of 2.35 µM and a GI50 (SK-MEL-5 melanoma) of 1.65 µM. It also gave a TGI (SK-MEL-5 melanoma) of 3.07 µM, a GI50 (SK-MEL-2 melanoma) of 2.62 µM and a TGI (SK-MEL-2 melanoma) of 5.87 µM. It also gave a GI50 (SR leukemia) of 0.289 µM, a TGI (SR leukemia) of over 100 µM and a GI50 (RPMI-8226 leukemia) of 0.295 µM. The TGI (RPMI-8226 leukemia) was 1.16 µM, the GI50 (SF-268 CNS) was 2.94 µM and the TGI (SF-268 CNS) was 8.88 µM. For the same compound, the GI50 (DU-145 prostate) was 5.86 µM, the TGI (DU-145 prostate) was 18.1 µM and the GI50 (HCT-116 colon) was 0.397 µM. For the same compound, the TGI (HCT-116 colon) was 1.88 µM, the GI50 (SN12C renal) was 2.15 µM and the TGI (SN12C renal) was 4.79 µM. The GI50 (RXF 393 renal) was 1.66 µM, the TGI (RXF 393 renal) was 3.38 µM and the GI50 (SNB-75 CNS) was 7.43 µM. For the same compound, the TGI (SNB-75 CNS) was 21.3 µM, the GI50 (IGROV1 ovarian) was 3.66 µM and the TGI (IGROV1 ovarian) was 12.7 µM. The GI50 (NCI-H23 lung) was 3.46 µM, the TGI (NCI-H23 lung) was 12.6 µM and the GI50 (HL-60(TB) leukemia) was 2.97 µM. It also gave a TGI (HL-60(TB) leukemia) of 21.2 µM, a GI50 (SF-539 CNS) of 2.2 µM and a TGI (SF-539 CNS) of 4.98 µM. It also gave a GI50 (T-47D breast) of 7.43 µM, a TGI (T-47D breast) of 21.4 µM and a GI50 (NCI-H522 lung) of 1.9 µM. For the same compound, the TGI (NCI-H522 lung) was 3.56 µM, the GI50 (NCI-H226 lung) was 18.1 µM and the TGI (NCI-H226 lung) was 50.3 µM. For the same compound, the GI50 (NCI-H460 lung) was 1.92 µM, the TGI (NCI-H460 lung) was 3.91 µM and the GI50 (786-0 renal) was 1.92 µM. It also gave a TGI (786-0 renal) of 4.07 µM, a GI50 (CAKI-1 renal) of 3.16 µM and a TGI (CAKI-1 renal) of 11.1 µM. The GI50 (OVCAR-4 ovarian) was 3.1 µM, the TGI (OVCAR-4 ovarian) was 13.1 µM and the GI50 (HS 578T breast) was 2.96 µM. The TGI (HS 578T breast) was 13.3 µM, the GI50 (MALME-3M melanoma) was 2.91 µM and the TGI (MALME-3M melanoma) was 6.69 µM. It also gave a GI50 (OVCAR-8 ovarian) of 2.23 µM, a TGI (OVCAR-8 ovarian) of 6.03 µM and a GI50 (OVCAR-3 ovarian) of 2.63 µM. It also gave a TGI (OVCAR-3 ovarian) of 6.04 µM, a GI50 (HOP-92 NSCLC) of 12.3 µM and a TGI (HOP-92 NSCLC) of 29.4 µM. For the same compound, the GI50 (K-562 leukemia) was 0.744 µM, the TGI (K-562 leukemia) was over 100 µM and the GI50 (A549 NSCLC) was 3.8 µM. The TGI (A549 NSCLC) was 16.2 µM, the GI50 (MDA-MB-231 breast) was 2.75 µM and the TGI (MDA-MB-231 breast) was 7.06 µM. The GI50 (CCRF-CEM leukemia) was 0.498 µM, the TGI (CCRF-CEM leukemia) was over 100 µM and the GI50 (ACHN renal) was 1.83 µM. The TGI (ACHN renal) was 3.4 µM, the GI50 (HOP-62 NSCLC) was 2.61 µM and the TGI (HOP-62 NSCLC) was 6.03 µM. For the same compound, the GI50 (OVCAR-5 ovarian) was 2.55 µM, the TGI (OVCAR-5 ovarian) was 6.6 µM and the GI50 (M14 melanoma) was 2.12 µM. The TGI (M14 melanoma) was 4.63 µM, the GI50 (MDA-MB-435) was 2.13 µM and the TGI (MDA-MB-435) was 5.89 µM. For the same compound, the GI50 (PC-3 prostate) was 2.6 µM, the TGI (PC-3 prostate) was 7.9 µM and the GI50 (MOLT-4 leukemia) was 2.95 µM. For the same compound, the TGI (MOLT-4 leukemia) was 17.9 µM, the GI50 (COLO 205 colon) was 2.59 µM and the TGI (COLO 205 colon) was 6.42 µM. The GI50 (SW-620 colon) was 0.647 µM, the TGI (SW-620 colon) was 2.47 µM and the GI50 (LOX IMVI melanoma) was 1.09 µM. It also gave a TGI (LOX IMVI melanoma) of 2.47 µM, a GI50 (HCC-2998 colon) of 1.74 µM and a TGI (HCC-2998 colon) of 3.2 µM. It also gave a GI50 (TK-10 renal) of 2.97 µM, a TGI (TK-10 renal) of 7.76 µM and a GI50 (UACC-257 melanoma) of 1.91 µM. The TGI (UACC-257 melanoma) was 4.64 µM, the GI50 (UO-31 renal) was 2.01 µM and the TGI (UO-31 renal) was 6.08 µM. For the same compound, the GI50 (KM12 colon) was 1.59 µM, the TGI (KM12 colon) was 3.12 µM and the GI50 (BT-549 breast) was 2.14 µM. It also gave a TGI (BT-549 breast) of 4.23 µM.
